# Measurements taken from patent US8404673B2, “Carbocyclic GlyT1 receptor antagonists” (Hoffmann-La Roche Inc., priority 2009, dated 2013).
# Like-named read-outs stand apart in the source and are kept apart here.
# Molecular target: T1, mGlyT-1b (Mus musculus, UniProt P28571)
# T1 construct: host or cells: Flp-in-CHO
# T1 sequence (P28571 1-651 isoform P28571-2): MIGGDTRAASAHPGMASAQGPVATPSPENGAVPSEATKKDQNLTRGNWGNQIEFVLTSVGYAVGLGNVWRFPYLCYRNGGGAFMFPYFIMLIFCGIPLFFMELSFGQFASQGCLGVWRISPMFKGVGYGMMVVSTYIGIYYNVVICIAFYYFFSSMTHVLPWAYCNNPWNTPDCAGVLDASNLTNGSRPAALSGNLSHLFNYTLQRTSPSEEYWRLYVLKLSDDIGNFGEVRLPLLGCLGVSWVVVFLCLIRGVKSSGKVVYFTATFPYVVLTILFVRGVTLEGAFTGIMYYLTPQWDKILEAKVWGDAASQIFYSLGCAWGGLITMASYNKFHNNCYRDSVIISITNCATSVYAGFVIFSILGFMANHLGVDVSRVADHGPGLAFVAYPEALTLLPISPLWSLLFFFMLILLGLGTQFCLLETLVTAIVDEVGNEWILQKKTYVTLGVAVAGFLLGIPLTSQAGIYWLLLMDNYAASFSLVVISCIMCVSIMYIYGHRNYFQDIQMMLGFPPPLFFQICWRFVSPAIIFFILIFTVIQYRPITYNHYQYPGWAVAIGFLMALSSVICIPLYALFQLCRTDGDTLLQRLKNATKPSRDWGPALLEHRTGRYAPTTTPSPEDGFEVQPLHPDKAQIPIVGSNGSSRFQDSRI
# Assay: Glycine Uptake Inhibition Assay (mGlyT-1b)
# Type: cell-based
Compound,IC50 (IC50 data) [nM],IC50 (read-out: IC50 data) [nM]
"O=C(NC1CCCC1N1CCCC1)c1ccc(C(F)(F)F)cc1C1CC1 (single isomer, unassigned) [Example 96, (+2-Cyclopropyl-N-cis-(-2-pyrrolidin-1-yl-cyclopentyl)-4-trifluoromethyl-benzamide]",42.8,–
"CSc1cc(C(F)(F)F)cc(C(F)(F)F)c1C(=O)N[C@@H]1CCC[C@@H]1N1CCCC1 (single isomer, unassigned) [Example 118, (+)-cis-2-Methylsulfanyl-N-(2-pyrrolidin-1-yl-cyclopentyl)-4,6-bis-trifluoromethyl-benzamide]",60,–
"CSc1cc(C(F)(F)F)cc(C(F)(F)F)c1C(=O)N[C@@H]1CCC[C@@H]1N1CCCC1 (single isomer, unassigned) [Example 119, (−)-cis-2-Methylsulfanyl-N-(2-pyrrolidin-1-yl-cyclopentyl)-4,6-bis-trifluoromethyl-benzamide]",65.4,–
"CCc1cccc(C2CC2)c1C(=O)N[C@@H]1CCC[C@@H]1N1CCCC1 (single isomer, unassigned) [Example 120, (−)-cis-2-Cyclopropyl-6-ethyl-N-(2-pyrrolidin-1-yl-cyclopentyl)-benzamide]",55.2,–
"CCc1cccc(C2CC2)c1C(=O)N[C@@H]1CCC[C@@H]1N1CCCC1 (single isomer, unassigned) [Example 121, (+)-cis-2-Cyclopropyl-6-ethyl-N-(2-pyrrolidin-1-yl-cyclopentyl)-benzamide]",36.1,–
"O=C(N[C@@H]1CCC[C@@H]1N1CCCC1)c1c(F)cc(C(F)(F)F)cc1C(F)(F)F (single isomer, unassigned) [Example 126, (−)-cis-2-Fluoro-N-(2-pyrrolidin-1-yl-cyclopentyl)-4,6-bis-trifluoromethyl-benzamide]",74,–
"CCc1cc(C(F)(F)F)cc(C(F)(F)F)c1C(=O)N[C@H]1CCC[C@H]1N1CCCC1 (single isomer, unassigned) [Example 141, (+)-2-Ethyl-N-(2-pyrrolidin-1-yl-cyclopentyl)-4,6-bis-trifluoromethyl-benzamide]",43.5,–
"CCc1cc(C(F)(F)F)cc(C(F)(F)F)c1C(=O)NC1CCCC1N1CCCC1 (single isomer, unassigned) [Example 142]",68,–
"O=C(NC1CCCC1N1CCCC1)c1ccc(C(F)(F)F)cc1C1CC1 (single isomer, unassigned; (+)) [Example 97, (+)-2-Cyclopropyl-N-cis-(-2-pyrrolidin-1-yl-cyclopentyl)-4-trifluoromethyl-benzamide]",82.4,–
"O=C(NC1CCCC1NC1CCCC1)c1ccc(C(F)(F)F)cc1C1CC1 (single isomer, unassigned; (+)) [Example 109, (+)-cis-N-2-Cyclopentylamino-cyclopentyl)-2-cyclopropyl-4-trifluoromethyl-benzamide]",–,25.3
"COc1cc(C(F)(F)F)cc(Br)c1C(=O)NC1CCCC1N1CCCC1 (single isomer, unassigned; (+)) [Example 115, (+)-2-Bromo-6-methoxy-N-cis-(2-pyrrolidin-1-yl-cyclopentyl)-4-trifluoromethyl-benzamide]",71.4,–
"O=C(NC1CCCC1N1CCCC1)c1c(Cl)cc(C(F)(F)F)cc1Cl (single isomer, unassigned; (+)) [Example 128, (+)-2,6-Dichloro-N-cis-(2-pyrrolidin-1-yl-cyclopentyl)-4-trifluoromethyl-benzamide]",69.1,–
"O=C(NC1CCCC1N1CCCC1)c1c(C2CC2)cc(C(F)(F)F)cc1C(F)(F)F (single isomer, unassigned; (+)) [Example 139, (+)-2-Cyclopropyl-N-((1R,2S or 1S,2R)-2-pyrrolidin-1-yl-cyclopentyl)-4,6-bis-trifluoromethyl-benzamide]",32.5,–
"O=C(NC1CCCC1NC1CCCC1)c1ccc(C(F)(F)F)cc1C1CC1 (single isomer, unassigned; (-)) [Example 110, (−)-cis-N-2-Cyclopentylamino-cyclopentyl)-2-cyclopropyl-4-trifluoromethyl-benzamide]",–,54.3
"COc1cc(C(F)(F)F)cc(Br)c1C(=O)NC1CCCC1N1CCCC1 (single isomer, unassigned; (-)) [Example 114, (−)-2-Bromo-6-methoxy-N-cis-(2-pyrrolidin-1-yl-cyclopentyl)-4-trifluoromethyl-benzamide]",66.8,–
"O=C(NC1CCCC1N1CCCC1)c1c(Cl)cc(C(F)(F)F)cc1Cl (single isomer, unassigned; (-)) [Example 129, (−)-2,6-Dichloro-N-cis-(2-pyrrolidin-1-yl-cyclopentyl)-4-trifluoromethyl-benzamide]",64.5,–
"O=C(NC1CCCC1N1CCCC1)c1c(C2CC2)cc(C(F)(F)F)cc1C(F)(F)F (single isomer, unassigned; (-)) [Example 138, (−)-2-Cyclopropyl-N-((1R,2, or 1S,2R)-2-pyrrolidin-1-yl-cyclopentyl)-4,6-bis-trifluoromethyl-benzamide]",67.9,–
